Where two headings read alike, the source gives them in different places.
Key:
[1] = Equilibrium loading data for metal salts, batch absorber experiments; format: physicochemical; conditions: atmospheric pressure; for SO2, ppm: equilibrium SO2 concentration; for Loading Capacity (fraction): equilibrium, aqueous absorption solution
Experimental: The following experiments were conducted in a batch absorber wherein a sulfur dioxide-containing gas was fed via a sparger below the liquid level in a vessel containing an aqueous absorption solution comprising various polyprotic carboxylic acid salts and the composition of the exhaust gas was monitored.
The sulfur dioxide-containing inlet gas 101 to be treated comprised nitrogen saturated with water vapor and a controlled concentration of sulfur dioxide. Temperatures (T) and pressure (P) were monitored during the experiment and gas samples (S) were taken at different times during the experiment. T1 and P1 are temperature and pressure sensors of inlet gas 101. S1 is a sampling point for inlet gas 101. T2 is a temperature sensor of the liquid in the vessel. T3 is a temperature sensor of exhaust gas 102.
In these experiments and other experiments reported in the Examples below, the gas concentrations were measured by gas chromatography and liquid concentrations were calculated by material balance.
All experiments were performed at atmospheric pressure. These experiments approach equilibrium concentrations and, in some cases, equilibrium data (denoted Eq. in the legend) are also included in the graphed results. For the equilibrium data, the compositions of the gas and liquid were diluted with excess caustic to maintain the sulfur dioxide in solution.
Total sulfur content was determined using ASTM Standard D1552, “Standard Test Method for Sulfur in Petroleum Products (High-Temperature Method”, DOI: 10.1520/D1552-08, available from ASTM International, West Conshohocken, Pa., www.astm.org.

[2] = cited from earlier work

Structure (SMILES) | SO2, ppm ([1]; 50 °C) [ppm] | SO2, ppm ([1]; 100 °C) [ppm] | Loading Capacity (fraction) ([1]; 50 °C) | Loading Capacity (fraction) ([1]; 100 °C) | pKa1 ([2]; 25° C.) | pKa2 ([2]; 25° C.) | pKa1 ([2]; temperature not given)
O=C([O-])CC(O)C(=O)[O-].[Na+].[Na+] (stereo not shown) [Na Mal, sodium malate] | 406.6 | 2169.06 | 0.1694 | 0.1416 | – | – | –
O=C(O)c1ccccc1C(=O)O [o-Phthalic Acid] | – | – | – | – | 2.89 | 5.51 | –
O=C([O-])c1ccccc1C(=O)[O-].[Na+].[Na+] [Na Pha, sodium phthalate] | 1115.92 | 11303.83 | 0.6530 | 0.7250 | – | – | –
CC(=O)CCC(=O)O [Levulinic Acid] | – | – | – | – | 4.59 | – | –
O=C([O-])CCC(=O)[O-].[Na+].[Na+] [Na Suc, sodium succinate] | 137.54 | 1387.3 | 0.1045 | 0.2053 | – | – | –
O=C(O)CCCC(=O)O [L-Glutaric Acid] | – | – | – | – | 4.31 | 5.41 | –
O=C([O-])CC(O)(CC(=O)[O-])C(=O)[O-].[K+].[K+].[K+] [K Cit, potassium citrate] | 105.94 | 1162.54 | 0.2754 | 0.2668 | – | – | –
O=C(O)c1cccnc1 [Nicotinic acid] | – | – | – | – | – | – | 4.75
